# Source: patent publication US20260297060A1, “COMPOUNDS FOR THE DEGRADATION OF MUTANT BRAF” (C4 THERAPEUTICS, INC., priority 2023, published 2026)
# Test system: A375 human melanoma xenografts
# Assay: Example 7 efficacy study in A375 human melanoma xenografts (tumor volume, T/C, TGI)
# Assay type: in vivo, BALB/c nude mice
# Settings: 100 mg/kg, p.o., QD × 14 days
# Description: For efficacy study, agents were tested in the A375 human melanoma xenografts. Compound 118, Compound 156, and Compound 180 were administered to BALB/c nude mice bearing A375 xenografts from day 0 and dosed p.o. twice per day (BID). Compound 141 was administered from day 0 and dosed p.o. twice per day (BID) or dosed p.o. daily (QD) from day 1. Compound 141, Compound 118, Compound 156, and Compound 180 were dosed at 10 mg/kg for 14 days. The known BRAF inhibitor Dabrafenib was used as a positive control. Dabrafenib was administered from day 1 and dosed p.o. daily (QD) for 14 days and dosed at 100 mg/kg.
# The A375 tumor cells were maintained in vitro in DMEM medium supplemented with […] and 1% Penicillin-Streptomycin at 37° C. in an atmosphere of 5% CO2 in air. The tumor cells were routinely subcultured twice weekly. The cells growing in an exponential growth phase were harvested and counted for tumor inoculation.
# Each mouse was inoculated subcutaneously at the right flank with A375 tumor cells (5×10^6) in 0.2 mL of PBS with Matrigel (PBS: Matrigel=1:1) supplemented for tumor development. Animals were grouped when the average tumor volume reached 246 mm^3 for efficacy study and 390 mm^3 for PKPD study on day 17 after tumor inoculation. The test articles administration and the animal numbers in each group are shown in the above experimental tables.
# Prior to the onset of drug treatment, mice were measured for tumor size in two dimensions using a caliper, and the tumor volume (mm^3) was calculated using formula V=0.5 a×b^2 where a and b are the long and short diameters of the tumor in mm, respectively. Mice were randomized into different treatment groups based on the tumor volume.
# The major endpoint was to see if the tumor growth could be delayed or mice could be cured. The tumor size was then used for calculations of T/C value. The T/C value (in percent) is an indication of antitumor effectiveness; T and C are the mean volumes of the treated and control groups, respectively on specified day.
# TGI was calculated for each group using the formula: TGI (%)=[1−(Ti−T0)/(Ci−C0)]×100; Ti is the average tumor volume of a treatment group on a given day, T0 is the average tumor volume of the treatment group on the day of treatment start, Ci is the average tumor volume of the vehicle control group on the same day with Ti, and C0 is the average tumor volume of the vehicle group on the day of treatment start.
structure (smiles),measurement,setting,value
"CC(C)(C)c1nc(-c2cccc(NS(=O)(=O)c3c(F)cccc3F)c2F)c(-c2ccnc(N)n2)s1 [Dabrafenib, dabrafenib, reference compound]",T/C,PG-D14,55.8%
same,TGI,PG-D14,54.3%
same,Tumor Size on PG-D14 (mean ± SEM),PG-D14,741 ± 40 mm^3
same,Tumor Volume (mean ± SEM),day 0,246 ± 10 mm^3
same,Tumor Volume (mean ± SEM),day 3,394 ± 20 mm^3
same,Tumor Volume (mean ± SEM),day 7,515 ± 30 mm^3
same,Tumor Volume (mean ± SEM),day 10,608 ± 21 mm^3
same,Tumor Volume (mean ± SEM),day 14,741 ± 40 mm^3
